Measurements reported in paper PMC9088825, “N ^α-arylsulfonyl histamines as selective β-glucosidase inhibitors” (RSC Advances, 2018).
Read-outs that look alike come from different tables or passages of the source. Values belong to the molecule of their own block, whether it stands above or below them.

Experiments:
β-Glc [1] = settings: cited from earlier work
β-Glc (from almonds) [2] = assay: β-Glc microplate assay (hydrolysis of p-nitrophenyl-β-D-glucopyranoside); type: biochemical; settings: for IC50: microplate assay, β-PNPG substrate, pH 7, 37 °C, read-out: IC50 (β-Glc inhibition)
Method: The final volume in well was 270 μL. The enzymatic reaction was initiated by addition of β-PNPG (1.63 mM end concentration in well). […] For IC50 determination, ten serial dilutions of the compounds were prepared in DMSO, following equally spaced points in […] logarithm scale, starting at 16.2 mM and finishing at 1.7 μM. IC50 was calculated using Prism V5.01 (GraphPad Software Inc., La Jolla, CA, USA) requesting the software a non-linear regression curve fit for a log[Inhibitor] vs. normalized answer model with variable slope.

β-Glc (from almonds) [3] = settings: cited from earlier work
β-Glc [4] = assay: Jump dilution assay; type: biochemical, almonds
Method: After 30 minutes of incubation, the mixture was diluted 100-fold and mixed with the substrate and α-CD to start the reaction. The progress curve of this sample was measured and compared to a sample of enzyme incubated and diluted in the absence of inhibitor. Each incubation and dilution were prepared and measured in triplicate. The percentage of activity recovery was obtained using Prism V5.01 (GraphPad Software Inc.).

β-Glc [5] = assay: Kinetic experiments (Lineweaver–Burk, Ki); type: biochemical, almonds
Method: Microplate assay was carried on varying substrate concentration between 0.022 and 7.2 mM; as well as the inhibitor concentration was varied between 0.239 and 0.0061 mM. Initial velocities vs. [S] curves were obtained with Michaelis–Menten equation adjustment. After that, Lineweaver–Burk linearization plot and the secondary linearization of Slopes vs. [I] reveled type of inhibition and Ki value respectively. All the data acquired was treated through Prism V5.01 (GraphPad Software Inc.).

xanthine oxidase (XO) = xanthine oxidase (XO) (Bos taurus, UniProt P80457); assay: XO microplate assay (uric acid formation); type: biochemical, bovine; settings: tested at 3 μM
Method: Following the method previously reported by Chu,[45] the formation of uric acid was continuously measured in 96-well microplate. Each well was filled in triplicates with: of 10 μL test compound in DMSO (0.11 μM end concentration in well) and XO (bovine) in 0.2 M buffer phosphate, pH 7.5 (2.81 μU mL^−1, end concentration in well). […] The final volume in well was 270 μL. The enzymatic reaction was initiated by addition of the xanthine substrate (0.04 mM, end concentration in well). The plate was shaken for 2 s and the increase in absorbance at 295 nm was monitored at 30 °C for 20 min.

[6] = biological target: acetyl cholinesterase (AChE) (Electrophorus electricus, UniProt O42275); type: biochemical, electric eel; settings: tested at 1.5 μM
Method: AChE activity measurement was carried on based on Ellman's method.[46] […] The plate was shaken for 2 s and the increase in absorbance at 405 nm was monitored at 37 °C for 15 min.

β-galactosidase (β-Gal) [7] = biological target: T1, β-galactosidase (β-Gal) (Kluyveromyces lactis, UniProt P00723); assay: β-Gal microplate assay; type: biochemical; settings: up to 3.500 mM
Method: Similar to the method applied in β-Glc assay, the hydrolysis of o-nitrophenyl-β-O-D-galactopyranoside (β-ONPG) was continuously measured in 96-well microplate. Wells were filled in triplicate with β-Gal (Kluyveromyces lactis) in 50 mM buffer phosphate, pH 7 (7.20 μU mL^−1 final concentration in well) and 10 μL of test compound in dimethylsulfoxide (DMSO) solution (100 μM or 500 μM end concentration in well). The final volume in well was 270 μL. The enzymatic reaction was initiated by addition of β-ONPG (3.23 mM end concentration in well). The plate was shaken for 2 s and the increase in absorbance at 405 nm was monitored at 37 °C for 10 min. For IC50 determination, eighteen serial dilutions of the compounds were prepared in DMSO, following equally spaced points in neperian logarithm scale, starting at 94.50 mM and finishing at 1.44 μM. IC50 was calculated using Prism V5.01 (GraphPad Software Inc., La Jolla, CA, USA) requesting the software a non-linear regression curve fit for a log[Inhibitor] vs. normalized answer model with variable slope.

β-galactosidase (β-Gal) [8] = biological target: T1, β-galactosidase (β-Gal); design: method as in earlier work; settings: ref 1 (Kato et al., J. Med. Chem., 2005, 48, 2036-2044); read-out: IC50 (β-Gal), reference inhibitor; cited from earlier work
[9] = binds the active site of β-Glc from almonds, read-out: Ki (β-Glc from almonds)

T1 sequence (P00723 whole entry): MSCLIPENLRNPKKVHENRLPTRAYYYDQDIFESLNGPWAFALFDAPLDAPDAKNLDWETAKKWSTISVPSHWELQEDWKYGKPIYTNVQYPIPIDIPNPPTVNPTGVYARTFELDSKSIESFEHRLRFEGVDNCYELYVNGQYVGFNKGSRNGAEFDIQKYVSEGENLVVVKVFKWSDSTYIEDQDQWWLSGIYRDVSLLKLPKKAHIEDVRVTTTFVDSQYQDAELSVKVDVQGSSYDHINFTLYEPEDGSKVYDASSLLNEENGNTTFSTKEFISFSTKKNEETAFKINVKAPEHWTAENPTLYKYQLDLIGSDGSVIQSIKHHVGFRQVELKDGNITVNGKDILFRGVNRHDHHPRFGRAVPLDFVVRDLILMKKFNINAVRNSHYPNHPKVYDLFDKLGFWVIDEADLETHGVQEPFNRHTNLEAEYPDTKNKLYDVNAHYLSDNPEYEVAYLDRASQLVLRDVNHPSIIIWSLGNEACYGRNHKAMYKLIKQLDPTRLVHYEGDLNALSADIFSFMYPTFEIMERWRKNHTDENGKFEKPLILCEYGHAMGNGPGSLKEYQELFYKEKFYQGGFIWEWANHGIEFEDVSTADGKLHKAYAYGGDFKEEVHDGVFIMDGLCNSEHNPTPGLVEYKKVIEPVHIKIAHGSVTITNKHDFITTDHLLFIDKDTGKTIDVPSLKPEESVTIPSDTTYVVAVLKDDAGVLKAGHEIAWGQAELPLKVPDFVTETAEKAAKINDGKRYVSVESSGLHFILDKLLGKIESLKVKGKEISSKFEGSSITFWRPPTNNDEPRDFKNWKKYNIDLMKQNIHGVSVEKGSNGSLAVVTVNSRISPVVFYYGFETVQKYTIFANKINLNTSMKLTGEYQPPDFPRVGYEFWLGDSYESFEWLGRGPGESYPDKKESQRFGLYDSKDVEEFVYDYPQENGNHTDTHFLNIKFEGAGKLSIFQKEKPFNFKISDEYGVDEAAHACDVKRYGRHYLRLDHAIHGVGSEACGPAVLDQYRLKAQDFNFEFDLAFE
xanthine oxidase (XO), sequence (P80457 whole entry): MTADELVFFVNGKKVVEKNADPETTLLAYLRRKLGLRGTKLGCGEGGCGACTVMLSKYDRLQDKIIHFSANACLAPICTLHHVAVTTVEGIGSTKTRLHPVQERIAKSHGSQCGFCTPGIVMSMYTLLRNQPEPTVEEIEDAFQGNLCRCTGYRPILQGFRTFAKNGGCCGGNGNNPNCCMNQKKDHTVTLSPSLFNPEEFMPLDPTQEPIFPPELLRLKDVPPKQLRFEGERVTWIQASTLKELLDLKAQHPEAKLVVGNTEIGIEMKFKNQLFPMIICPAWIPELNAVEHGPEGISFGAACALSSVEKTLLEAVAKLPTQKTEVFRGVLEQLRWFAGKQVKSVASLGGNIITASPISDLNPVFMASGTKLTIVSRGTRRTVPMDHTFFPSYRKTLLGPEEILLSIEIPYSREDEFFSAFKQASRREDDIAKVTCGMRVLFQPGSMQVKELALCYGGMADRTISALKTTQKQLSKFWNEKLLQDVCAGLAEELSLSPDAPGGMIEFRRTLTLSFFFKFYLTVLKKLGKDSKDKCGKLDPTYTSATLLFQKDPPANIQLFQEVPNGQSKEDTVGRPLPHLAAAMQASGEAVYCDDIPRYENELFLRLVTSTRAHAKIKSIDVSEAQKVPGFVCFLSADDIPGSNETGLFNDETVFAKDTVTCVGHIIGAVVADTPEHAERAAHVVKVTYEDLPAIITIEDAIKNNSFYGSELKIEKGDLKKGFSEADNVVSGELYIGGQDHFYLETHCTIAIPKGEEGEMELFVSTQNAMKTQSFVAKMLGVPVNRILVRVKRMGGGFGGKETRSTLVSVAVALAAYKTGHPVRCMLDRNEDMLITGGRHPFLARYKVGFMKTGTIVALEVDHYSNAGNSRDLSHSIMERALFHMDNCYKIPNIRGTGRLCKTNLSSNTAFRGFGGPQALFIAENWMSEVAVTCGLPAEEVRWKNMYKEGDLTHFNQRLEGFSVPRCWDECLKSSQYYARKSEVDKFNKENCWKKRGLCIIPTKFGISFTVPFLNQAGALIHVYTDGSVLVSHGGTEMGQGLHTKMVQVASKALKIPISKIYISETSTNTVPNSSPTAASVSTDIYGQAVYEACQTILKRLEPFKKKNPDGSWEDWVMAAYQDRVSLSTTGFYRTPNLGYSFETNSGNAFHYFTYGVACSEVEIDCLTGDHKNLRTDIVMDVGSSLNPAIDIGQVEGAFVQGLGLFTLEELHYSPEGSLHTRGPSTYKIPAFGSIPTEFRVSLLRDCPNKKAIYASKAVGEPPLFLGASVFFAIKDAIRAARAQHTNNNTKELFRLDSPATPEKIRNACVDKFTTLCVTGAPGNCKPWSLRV
acetyl cholinesterase (AChE), sequence (O42275 24-633): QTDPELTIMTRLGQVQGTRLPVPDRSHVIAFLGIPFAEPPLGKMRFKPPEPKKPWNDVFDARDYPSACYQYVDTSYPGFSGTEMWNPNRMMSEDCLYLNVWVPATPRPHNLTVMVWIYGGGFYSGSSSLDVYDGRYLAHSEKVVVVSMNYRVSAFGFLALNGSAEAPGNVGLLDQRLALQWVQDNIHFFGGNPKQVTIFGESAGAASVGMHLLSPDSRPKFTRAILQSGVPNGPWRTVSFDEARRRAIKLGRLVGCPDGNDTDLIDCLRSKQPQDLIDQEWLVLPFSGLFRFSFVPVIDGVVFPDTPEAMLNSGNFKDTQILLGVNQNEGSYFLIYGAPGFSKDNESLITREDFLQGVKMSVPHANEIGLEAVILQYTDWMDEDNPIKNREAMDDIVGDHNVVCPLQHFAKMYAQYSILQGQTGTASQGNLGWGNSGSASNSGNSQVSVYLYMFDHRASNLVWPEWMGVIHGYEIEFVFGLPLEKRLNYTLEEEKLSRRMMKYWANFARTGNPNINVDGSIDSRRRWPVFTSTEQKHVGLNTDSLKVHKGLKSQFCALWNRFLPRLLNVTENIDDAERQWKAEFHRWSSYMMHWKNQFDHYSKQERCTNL

IC50 (β-Glc (from almonds) [2]): 79.5 ± 1.05 µM
Compound: O=S(=O)(NCCc1c[nH]cn1)c1ccc(C(F)(F)F)cc1 [I-d, N ^α-4-(trifluoromethyl)benzenesulfonyl histamine]

IC50 (β-Glc (from almonds) [2]): 95.5 ± 1.02 µM
Compound: COc1ccc(S(=O)(=O)NCCc2c[nH]cn2)cc1F [I-j, N ^α-3-fluoro-4-methoxybenzenesulfonyl histamine]

IC50 (β-Glc (from almonds) [2]): 197 µM
Compound: O=S(=O)(NCCc1c[nH]cn1)c1ccccc1 [I-a, N ^α-benzenesulfonyl histamine]

IC50 (β-Glc (from almonds) [2]): 71.4 ± 1.02 µM
Compound: O=S(=O)(NCCc1c[nH]cn1)c1cc(F)c(F)c(F)c1 [I-g, N ^α-3,4,5-trifluorobenzenesulfonyl histamine]

IC50 (β-Glc (from almonds) [2]): 250 ± 1.03 µM
Compound: Cc1ccc(S(=O)(=O)NCCc2c[nH]cn2)cc1 [I-b, N ^α-p-toluenesulfonyl histamine]

IC50 (β-Glc (from almonds) [2]): 72.7 ± 1.05 µM
Compound: O=S(=O)(NCCc1c[nH]cn1)c1ccc(F)cc1C(F)(F)F [I-h, N ^α-2-(trifluoromethyl)-4-fluorobenzenesulfonyl histamine]

IC50 (β-Glc (from almonds) [2]): 244.2 ± 1.09 µM
Compound: O=S(=O)(NCCc1c[nH]cn1)c1ccc(F)cc1Cl [I-f, N ^α-2-Chloro-4-fluorobenzenesulfonyl histamine]

Second part, the molecule before the results:

Compound: c1c[nH]cn1 [imidazole]
Ki (β-Glc [1]; [9]): 530 µM

Compound: OC[C@H]1NC[C@H](O)[C@@H](O)[C@@H]1O [1-DNJ, 1-deoxynojirimycin, reference compound]
IC50 (β-Glc (from almonds) [2]): 65.2 ± 1.04 µM
IC50 (β-Glc (from almonds) [3]; read-out: IC50 (β-Glc inhibition), reported value for reference inhibitor): 81 µM
Ki (β-Glc [1]; measured in similar conditions, read-out: Ki (β-Glc), reference compound): 47 µM

Compound: O=S(=O)(NCCc1c[nH]cn1)c1c(F)c(F)c(F)c(F)c1F [I-i, N ^α-pentafluorobenzenesulfonyl histamine]
IC50 (β-Glc (from almonds) [2]): 102 ± 1.05 µM

Compound: O=S(=O)(NCCc1c[nH]cn1)c1ccc(F)cc1 [I-c, N ^α-4-fluorobenzenesulfonyl histamine]
IC50 (β-Glc (from almonds) [2]): 65.1 ± 1.04 µM
% inhibition of β-Glc at 65 μM (β-Glc (from almonds) [2]; tested at 65 μM): 49.94%
Enzyme activity recovery (jump dilution) (β-Glc [4]; incubated at 10-fold IC50, 30 min, diluted 100-fold): 91%
Enzyme–inhibitor interaction (reversibility) (β-Glc [4]; jump dilution): reversible
Type of inhibition (Lineweaver–Burk plot) (β-Glc [5]; different concentrations of p-NPG and inhibitor): competitive
Ki (β-Glc [5]; kinetic assays, p-NPG substrate): 8.11 µM
inhibition at 3 µM (xanthine oxidase (XO)): 1.31%
Inhibition of AChE [6]: no inhibition
Inhibition of β-Gal (β-galactosidase (β-Gal) [7]): no inhibition

Compound: NCCc1c[nH]cn1 [histamine]
IC50 (β-Glc (from almonds) [2]): > 1000 µM
Ki (β-Glc [1]; [9]): 2100 µM

Compound: Cc1ccc(F)c(S(=O)(=O)NCCc2c[nH]cn2)c1 [I-e, N ^α-2-fluor-5-methylbenzenesulfonyl histamine]
% of inhibition of β-Glc at 40 μM (β-Glc (from almonds) [2]; fixed compound concentration 40 μM): ≤ 25%
IC50 (β-Glc (from almonds) [2]): 421.6 ± 0.94 µM

Compound: O=S(=O)(NCCc1cn(S(=O)(=O)c2ccccc2)cn1)c1ccccc1 [II-a, N ^α,N^τ-di-benzenesulfonyl histamine]
IC50 (β-Glc (from almonds) [3]; read-out: IC50 (β-Glc inhibition), reported value): 250 µM

Compound: OC[C@H]1NC[C@H](O)[C@@H](O)[C@H]1O [galacto-DNJ]
IC50 (β-galactosidase (β-Gal) [8]): 90 µM
